Reference: article PMC5711939, “The rumen microbiome: an underexplored resource for novel antimicrobial discovery” (NPJ Biofilms and Microbiomes, 2017)
Where two headings read alike, the source gives them in different places. Ends that are not written are not given here.

How the values were obtained:
[1] = system: MRSA ATCC 33591; experiment: Anti-biofilm activity, 96-well crystal violet model; type: cell-based, Staphylococcus aureus; conditions: 0.25× MIC (data not shown)
Procedure: The effectiveness of Lynronne-1, Lynronne-2, and Lynronne-3 to prevent (a) biofilm attachment and (b) disrupt established biofilms was measured using a 96-well biofilm model.[50] […] The biofilms were washed in PBS to remove planktonic cells, fixed with methanol, stained with 0.5% (w/v) crystal violet and re-solubilized with 33% (v/v) acetic acid. The optical density of biofilms was measured at 570 nm.

[2] = system: MRSA USA300 cells; experiment: Transmission electron microscopy of treated cells; type: cell-based, Staphylococcus aureus; conditions: 3× MIC for 1 h
Source text: Effects of AMPs on bacterial cell morphology was investigated using transmission electron microscopy as described by Huws et al.[49] […] Cells were post-fixed with 1% osmium tetroxide (w/v), stained with 2% (w/v) uranyl acetate and Reynold’s lead citrate and observed using a JEOL JEM1010 transmission electron microscope (JEOL Ltd, Tokyo, Japan) at 80 kV.

[3] = system: A. baumanii; experiment: microbe, parasite or virus in culture
Procedure: (§1) Peptides dissolved in sterile distilled water and comparator antibiotics dissolved in the appropriate solvents[38] were added to sterile U-bottom polypropylene 96-well microplates at desired concentrations.

[4] = system: K. pneumoniae; experiment: microbe, parasite or virus in culture; conditions: cation adjusted MHB, 18–24 h
Procedure: as §1

[5] = Peptide-lipid interaction, lipid monolayer (Langmuir balance); type: binding, Staphylococcus aureus; conditions: initial surface pressure 30 ± 0.5 mN/m; compared to Lynronne-2
Procedure: Membrane permeabilsation was evaluated using propidium iodide assay as previously explained,[43] with CTAB as positive control. Peptide–lipid interaction was measured using reconstituted lipid monolayer.[44] Total lipid extract from overnight liquid cultures of MRSA USA300 was obtained by Folch extraction, resuspended in chloroform and stored at −20 °C under nitrogen conditions. Pure bacterial and eukaryotic lipids, POPG, cardiolipin, LTA, POPE and POPC (Avanti Polar Lipid USA) were reconstituted in chloroform at 1 mg/ml and stored at −20 °C under nitrogen. […] The variation of the surface pressure caused by peptide injection was then continuously monitored using a fully automated microtensiometer (µTROUGH SX, Kibron Inc., Helsinki, Finland) until reaching equilibrium (maximal surface pressure increase usually obtained after 15–25 min). Critical pressure of insertion of each peptide in the different lipids was also determined by changing the initial pressure of lipid monolayer (from 10 and 30 mN/m) and measuring the variation of pressure caused by the injection of peptide (at 1 µg/ml final concentration). All experiments were carried out in a controlled atmosphere at 20 °C ± 1 °C and data were analyzed using the Filmware 2.5 program (Kibron Inc., Helsinki, Finland). […]

| Substance | Biofilm attachment [1] | Changes in cell morphology (TEM) [2] | MIC [3] | MIC ([4]; strain ATCC 700603, SHV-18) | MIC ([4]; strain NCTC 13442, OXA-48) | Insertion ability into MRSA lipid extract monolayer [5] | MIC ([3]; strain 1560739339, OXA-23, cation adjusted MHB, 18–24 h) | MIC ([4]; strain Q14-0095, KPC) |
| --- | --- | --- | --- | --- | --- | --- | --- | --- |
| HLRRINKLLTRIGLYRHAFG-NH2 [Lynronne-2] | effective | very little morphology changes | – | – | – | – | – | – |
| LPRRNRWSKIWKKVVTVFS-NH2 [Lynronne-1] | – | – | 4 µg/mL | 16 µg/mL | 16 µg/mL | higher insertion ability | – | – |
| NRFTARFRRTPWRLCLQFRQ-NH2 [Lynronne-3] | – | – | – | 32 µg/mL | 32 µg/mL | higher insertion ability | 32 µg/mL | 32 µg/mL |
